Experimental data reported in patent US9433607B2, “Composition for prevention or treatment of cancer comprising N-methylenenaphtho[2,1-b]furan-2-carbohydrazide derivatives as an active ingredient” (KOREA RESEARCH INSTITUTE OF BIOSCIENCE AND BIOTECHNOLOGY, priority 2012, dated 2016).

Columns and labels:
Type in all cases: cell-based
[1] = system: A549; test: Anti-proliferative MTT assay, A549; conditions: Homo sapiens, 96 h, A549, Lung, 4 days
Method: (§1) Various cancer cell lines (rectal cancer, prostate cancer, breast cancer, lung cancer, stomach cancer, liver cancer, leukemia, brain cancer, and glioma cell lines) were cultured in microtiter plate (1-3×10^3 cells/well), to which ethyl(2-methyl-3{(E)-[(naphtho[2,1-b]furan-2-ylcarbonyl)hydrazono]methyl}-1H-indole-1-yl)acetate was treated. The culture continued for 4 days. Cytotoxicity was investigated by MTT assay by the same manner as described in Example <1-2>. IC50 was calculated by long-dose response curve. The data presents the mean value obtained from the assay performed in triplicate.

[2] = system: K562; test: Cytotoxicity MTT assay, K562; conditions: Homo sapiens, 96 h, 4 days
Method: Particularly, K562, MCF7 (Bio-Evaluation Center, Korea Research Institute of Bioscience and Biotechnology, Korea), and the multi-drug resistant cell lines thereof, K562/ADR and MCF7/ADR (Bio-Evaluation Center, Korea Research Institute of Bioscience and Biotechnology, Korea) were cultured in microtiter plate (1-3×10^3 cells/well). Then, the cells were treated with ethyl(2-methyl-3{(E)-[(naphtho[2,1-b]furan-2-ylcarbonyl)hydrazono]methyl}-1H-indole-1-yl)acetate, doxorubicin, or taxol, followed by culture for 4 days. Cytotoxicity was investigated by MTT assay by the same manner as described in Example <1-2>. IC50 was calculated by long-dose response curve. The data presents the mean value obtained from the assay performed in triplicate (Table 3).

[3] = system: A-172; test: Anti-proliferative MTT assay, A-172; conditions: Homo sapiens, 96 h, A-172, Brain, 4 days
Method: as §1

[4] = system: Hep3B; test: Anti-proliferative MTT assay, Hep3B; conditions: Homo sapiens, 96 h, Liver, 4 days
Method: as §1

[5] = system: PC-3; test: Anti-proliferative MTT assay, PC-3; conditions: Homo sapiens, 96 h, PC-3, Prostate, 4 days
Method: as §1

[6] = system: SNU-601; test: Anti-proliferative MTT assay, SNU-601; conditions: 96 h, SNU-601, Stomach, 4 days
Method: as §1

[7] = system: Various cancer cell lines; test: Anti-proliferative MTT assay, various cancer cell lines (summary); conditions: 96 h, range over the cell lines, 4 days, read-out: IC50 across cancer cell lines
Method: as §1

[8] = system: HT-29; test: Anti-proliferative MTT assay, HT-29; conditions: Homo sapiens, 96 h, HT-29, Large intestine, 4 days
Method: as §1

[9] = system: U373MG; test: Anti-proliferative MTT assay, U373MG; conditions: Homo sapiens, U373 MG, 96 h, Brain, 4 days
Method: as §1

[10] = system: HCT116; test: Anti-proliferative MTT assay, HCT116; conditions: Homo sapiens, HCT-116, 96 h, HCT116, Large intestine, 4 days
Method: as §1

[11] = system: HeLa cell line; test: Anti-proliferative activity in HeLa cells (MTT assay); conditions: Homo sapiens
Method: Particularly, HeLa cell line (ATCC, USA) was treated with the compounds of Table 1 respectively, and then IC50 (the half maximal inhibitory concentration) was investigated (Table 1).
HeLa cells were treated with 100 nM, 250 nM, 500 nM and 1 μM of ethyl(2-methyl-3{(E)-[(naphtho[2,1-b]furan-2-ylcarbonyl)hydrazono]methyl}-1H-indole-1-yl)acetate or DMSO for 4 days. Then, the cell growth was confirmed by MTT assay. All the obtained numbers were calculated by normalizing the value of Day 0. The data presents the mean value obtained from the assay performed in triplicate.
Particularly, HeLa cells were distributed in a 96-well plate at the density of 2×10^3 cells/well. The cells were treated with DMSO or the compound of the present invention, to which MTT reagent was added at the concentration of 10 μl/well. 2 hours later, OD450 was measured, which became the value of Day 0. 4 days later, MTT reagent was added thereto again. 2 hours later, OD450 was measured. The data presents the mean value obtained from the assay performed in triplicate.

[12] = system: HeLa cells; test: Immunofluorescence of intracellular microtubules and chromosomes
Method: To investigate the effect of ethyl(2-methyl-3{(E)-[(naphtho[2,1-b]furan-2-ylcarbonyl)hydrazono]methyl}-1H-indole-1-yl)acetate on intracellular microtubules, HeLa cells were treated with DMSO, Taxol (100 μM), nocodazole (200 ng/ml), or ethyl(2-methyl-3{(E)-[(naphtho[2,1-b]furan-2-ylcarbonyl)hydrazono]methyl}-1H-indole-1-yl)acetate (5 μM) for 17 hours. After fixing the cells, the cells were immuno-stained with Alexa Fluor 488-conjugated anti-tubulin antibody and Hoechst 33342 to confirm α-tubulin and chromosomes.

[13] = system: NCl-H460; test: Anti-proliferative MTT assay, NCl-H460; conditions: 96 h, NCl-H460, Lung, 4 days
Method: as §1

[14] = system: MDA-MB-231; test: Anti-proliferative MTT assay, MDA-MB-231; conditions: Homo sapiens, 96 h, MDA-MB-231, Breast, 4 days
Method: as §1

[15] = system: HepG2; test: Anti-proliferative MTT assay, HepG2; conditions: Homo sapiens, 96 h, HepG2, Liver, 4 days
Method: as §1

[16] = system: SNU-484; test: Anti-proliferative MTT assay, SNU-484; conditions: 96 h, SNU-484, Stomach, 4 days
Method: as §1

[17] = system: SNB-75; test: Anti-proliferative MTT assay, SNB-75; conditions: Homo sapiens, 96 h, SNB-75, Brain, 4 days
Method: as §1

[18] = system: caspase-3 and PARP; test: Immunoblotting of apoptosis related proteins; conditions: HeLa cells
Method: Particularly, HeLa cells were treated with DMSO or ethyl(2-methyl-3{(E)-[(naphtho[2,1-b]furan-2-ylcarbonyl)hydrazono]methyl}-1H-indole-1-yl)acetate for 24 or 48 hours. Then, immunoblotting was performed to investigate the expressions of caspase-3 and PARP, the apoptosis related proteins. PARP (poly(ADP-ribose)polymerase) is one of the downstream cleavage proteins derived from caspase3. Immunoblotting was performed using caspase-3, PARP, and GAPDH specific antibodies.

CCOC(=O)Cn1c(C)c(/C=N/NC(=O)c2cc3c(ccc4ccccc43)o2)c2ccccc21 [STK899704]
IC50 [1]: 843 nM
IC50 [2]: 450 nM
IC50 [3]: 603 nM
IC50 [4]: 683 nM
IC50 [5]: 650 nM
IC50 [6]: 773 nM
IC50 [7]: 220 to 1060 nM
IC50 [8]: 701 nM
IC50 [9]: 517 nM
IC50 [10]: 717 nM
IC50 ([11]; 96 h, HeLa, Cervix, MTT, 4 days): 260 nM
IC50 ([11]; HeLa cell line): 260 nM
effect on microtubules (immunofluorescence over concentrations) ([12]; 1 μM): all the microtubules were destroyed
effect on microtubules and chromosomes (immunostaining) ([12]; 17 hours, Taxol 100 μM, nocodazole 200 ng/ml, compound 5 μM): chromosomes were not fully condensed and microtubules were destroyed
IC50 [13]: 806 nM
IC50 [14]: 543 nM
IC50 [15]: 820 nM
IC50 [16]: 221 nM
IC50 [17]: 588 nM
PARP cleavage ([18]; 48 hours): significantly increased
caspase-3 cleavage ([18]; 48 hours, 0.5 μM): significantly increased
caspase-3 cleavage ([18]; 48 hours, 1 and 5 μM): more significantly increased
caspase-3 cleavage ([18]; within 24 hours): not observed
